Measurements: patent publication US20070172421A1, “Substituted pyrrolidine-2-ones” (priority 2004, published 2007)
Structures can show the parent of a compound that is named as a salt.

SMILES | melting point
CN1C(=O)[C@@H](CN2CCCCC2)C[C@H]1c1ccc(-c2cccc(Cl)c2)s1.Cl [Example E10] | 155 to 158 °C
Cc1ccc([C@@H]2C[C@H](CN3CCCCC3)C(=O)N2C)cc1C.Cl [Example A2] | 138 to 142 °C
CN1C(=O)[C@@H](CN2CCCCC2)C[C@H]1c1ccc2c(c1)CCCC2.Cl [Example A6] | 234 to 238 °C
CN1C(=O)[C@@H](CN2CCCCC2)C[C@H]1c1ccc2c(c1)CCCC2.Cl [Example A5] | 208 to 210 °C
CN1C(=O)[C@@H](CN2CCCCC2)C[C@H]1c1ccc(-c2cccc(Cl)c2)s1.Cl [Example E9] | 162 to 163 °C
CN1C(=O)[C@@H](CN2CCCCC2)C[C@H]1c1ccc(-c2ccc3c(c2)OCO3)cc1 (relative stereo) [Example H5, cis-5-(4-(Benzo[1,3]dioxol-5-yl)-phenyl)-1-methyl-3-piperidin-1-ylmethyl-pyrrolidin-2-one] | 110 to 112 °C
CN1C(=O)[C@@H](CN2CCCCC2)C[C@H]1c1cnc(-c2sccc2Cl)s1.Cl [Example F4] | 207 to 210 °C
Cc1ccc([C@@H]2C[C@H](CN3CCCCC3)C(=O)N2C)cc1C.Cl [Example A1] | 143 to 147 °C
CN1C(=O)[C@@H](CN2CCCCC2)C[C@H]1c1cnc(-c2sccc2Cl)s1.Cl [Example F3] | 215 to 220 °C
Cc1cc(C)cc([C@@H]2C[C@H](CN3CCCCC3)C(=O)N2C)c1.Cl [Example A3] | 184 to 190 °C
Cc1cc(C)cc([C@@H]2C[C@H](CN3CCCCC3)C(=O)N2C)c1.Cl [Example A4] | 172 to 180 °C

Next, values leading:

melting point | SMILES
199 to 203 °C | CN1C(=O)[C@@H](CN2CCCCC2)C[C@H]1C#Cc1ccccc1.Cl [Example D4]
166 to 169 °C | CN1C(=O)[C@@H](CN2CCCCC2)C[C@H]1C#Cc1ccccc1Cl.Cl [Example D5]
69 to 71 °C | CN1C(=O)[C@@H](CN2CCCCC2)C[C@H]1c1ccc(Br)s1 [Example E1, (+)-cis-5-(5-Bromo-thiophen-2-yl)-1-methyl-3-piperidin-1-ylmethyl-pyrrolidin-2-one]
87 to 90 °C | CN1C(=O)C(CN2CCCCC2)CC1C1CC1c1ccccc1Cl (stereo not shown) [Example C2, 5-[2-(2-Chloro-phenyl)-cyclopropyl]-1-methyl-3-piperidin-1-ylmethyl-pyrrolidin-2-one]
55 to 58 °C | CN1C(=O)[C@@H](CN2CCCCC2)C[C@H]1c1ccc(Br)cc1 (as salt: HCl) [Example A7, (−)-cis-5-(4-Bromo-phenyl)-1-methyl-3-piperidin-1-ylmethyl-pyrrolidin-2-one]
130 to 135 °C | CN1C(=O)[C@@H](CN2CCCCC2)C[C@H]1c1ccc(-c2ccccc2Cl)cc1.Cl [Example H3]
169 to 172 °C | Cc1cccc(C#C[C@@H]2C[C@H](CN3CCCCC3)C(=O)N2C)c1.Cl [Example D2]
135 to 140 °C | CC(=O)Nc1ccccc1C#C[C@H]1C[C@@H](CN2CCCCC2)C(=O)N1C.Cl
197 to 201 °C | CN1C(=O)[C@@H](CN2CCCCC2)C[C@H]1C#Cc1ccccc1.Cl [Example D3]
134 to 139 °C | CN1C(=O)[C@@H](CN2CCCCC2)C[C@H]1c1ccc(-c2ccccc2Cl)cc1.Cl [Example H2]
178 to 183 °C | CN1C(=O)[C@@H](CN2CCCCC2)C[C@H]1c1cnc(-c2ccccc2Cl)s1.Cl [Example F1]
160 to 165 °C | CN1C(=O)[C@@H](CN2CCCCC2)C[C@H]1C#Cc1ccccc1Cl.Cl [Example D6]
163 to 167 °C | Cc1cccc(C#C[C@@H]2C[C@H](CN3CCCCC3)C(=O)N2C)c1.Cl [Example D1]
171 to 176 °C | CN1C(=O)[C@@H](CN2CCCCC2)C[C@H]1c1cnc(-c2ccccc2Cl)s1.Cl [Example F2]
